Tests used:
oil palm [1] = assay: Second field study, repeat preharvest AVG sprays every 20 days, harvest 10 days after treatment (Example 2); format: in vivo, oil palm (bi-clonal DxP palms); settings: AVG 500 ppm
Procedure: Plant material: A second field study was executed in a plantation in Malaysia to compare the effects of repeat broadcast directed bunch applications of AVG to the untreated control (UTC). For both treatments, 148 palms per block with 4 rows per block covering about 1.1 ha were used. The bi-clonal DxP palms were 3 to 4 years old. Treatment application: A motorized mist blower was used to apply AVG (500 ppm at 600 mL/plant or 300 mg/palm/application) to the lower and most mature rows of bunches of each palm plant. The time required for 360 degree spray application per palm plant was about 30 seconds. Treatments were applied every 20 days and harvests of treated palms were 10 days after treatments. Untreated bunches were harvested every 10 days. Treatments were applied from September to November 2013. Oil yield: Oil yield was determined as kg oil/bunch=oil content*bunch wt. […] Oil yield was 2.80 kg/bunch for the AVG treatment and 2.51 kg/bunch for the UTC.

oil palm [2] = assay: Field study, repeat bunch-directed preharvest application of AVG every 10 days (Example 1); format: in vivo, oil palm (bi-clonal DxP palms)
Procedure: Plant material: A field study was executed in a plantation in Malaysia to compare the effects of repeat bunch-directed applications of AVG to the untreated control (UTC). In this study, AVG was provided in a formulation as AVG-HCl at a concentration of 20% w/wt. For both treatments, 148 palms per block with 4 rows per block covering about 1.1 hectare were used. The bi-clonal DxP palms were 3 to 4 years old.
Treatment application: A motorized mist blower was used to apply AVG (500 ppm, at 600 mL/palm or 300 mg/palm/application) to the lower and most mature rows of bunches of each palm.
The time required for 360 degree spray application around each palm was about 30 seconds. Sprays were applied every 10 days which coincided with harvest frequency in this block. Treatments were applied from September to November 2013.
Harvest: Harvest picks occurred every 10 days. Bunches were harvested at the point of initial fruit drop. At harvest, UTC bunches had lost an average of 34.8 fruit/bunch and the AVG-treated bunches had lost 33.9 fruits/bunch. Bunch weight results were recorded over six harvests picks for the 10 representative palms that were tagged for each treatment.
Oil content: At each harvest pick beginning with the fourth harvest pick interval, bunches were selected and individually bagged, tagged, and transferred to the laboratory for determination of oil content. Bunch samples from each harvest were analyzed in the laboratory for oil content using standard methods (Blaak, et al., 1963, J. West African Institute of Oil Palm Research, 4:146-155).
Oil yield: Oil yield was determined as kg oil/bunch=oil content*bunch wt. […] Oil yield was 2.85 kg/bunch for the AVG treatment and 2.56 kg/bunch for the UTC.

oil palm [3] = assay: Oil quality (free fatty acid content) of oil from AVG-HCl treated oil palms; format: in vivo; settings: Rath and Shashikant 2014, Valent BioSciences technical information
oil palm fruit = settings: preharvest application to attached bunches of oil palm fruit; cited from earlier work

Which “Average Bunch Weight” value (oil palm [1]; 600 mL/plant) does the source give for `NCCO/C=C/[C@H](N)C(=O)O` (stereo in doubt) [AVG, [S]-trans-2-amino-4-(2-aminoethoxy)-3-butenoic acid] here?
The value was 9.36 kg/bunch.

What about the “Oil Yield (oil content*bunch wt)” value (oil palm [1]; 600 mL/plant) of the same molecule?
Its value is 2.80 kg oil/bunch.

And the “Average Oil Content” value (oil palm [1]; 600 mL/plant (300 mg/palm/application))?
The value was 0.299 oil wt/bunch wt.

What about the “Average Oil Content” value (oil palm [2]; AVG 500 ppm, 600 mL/palm (300 mg/palm/application), sprays every 10 days, bunches from fourth harvest pick on) of the same molecule?
The value was 0.284 oil wt/bunch wt.

And the “Oil Yield (oil content*bunch wt)” value (oil palm [2]; AVG 500 ppm, 600 mL/palm, sprays every 10 days)?
Its value is 2.85 kg oil/bunch.

What about the “Average Bunch Weight” value (oil palm [2]; AVG 500 ppm, 600 mL/palm, sprays every 10 days, six harvest picks, 10 tagged palms) of the same molecule?
The value was 10.02 kg/bunch.

And the “Average fruit lost per bunch at harvest” value (oil palm [2]; bunches harvested at the point of initial fruit drop, UTC 34.8 fruit/bunch)?
Its value is 33.9 fruits/bunch.

Which “Free fatty acid content of the oil” value (oil palm [3]) does the source give for `Cl.NCCO/C=C/[C@H](N)C(=O)O` [AVG-HCl] here?
The value was “did not have increased free fatty acid content”.

Which “Increase in oil content” value (oil palm fruit) does the source give for `O=P(O)(O)CCCl` [ethephon, 2-chloroethyl phosphonic acid] here?
The value was 7%.

From patent US9445588B2, “Methods for increasing oil palm yield” (Valent BioSciences Corporation, priority 2014, dated 2016)
